Measurements published in patent publication US20200255714A1, “HYDROFLUOROEPOXIDE CONTAINING COMPOSITIONS AND METHODS FOR USING SAME” (3M INNOVATIVE PROPERTIES COMPANY, priority 2017, published 2020).

How the values were obtained:
Format in all cases: physicochemical
[1] = Thermal stability under air sparging at elevated temperature (GC analysis); settings: 72 hour stir at 215° C.-220° C., sparging by air 0.4 L/min
Description: To a 3-neck 250 mL round bottom flask equipped with a water-cooled condenser, temperature probe, magnetic stir bar, and a ⅛ inch FEP tube connected to 10 micron steel frit was charged 2,3-bis(3,3,4,4,5,5,5-heptafluoro-2,2-bis(trifluoromethyl)pentyl) oxirane (70.4 g, 99 mmol). Sparging by air through the 10 micron steel frit at a rate of 0.4 L/min commenced and the internal temperature was slowly raised to 220° C. with stirring. After a 72 hour stir with the temperature held between 215° C.-220° C., the material was allowed to cool to room temperature.

[2] = Vapor pressure by stirred-flask ebuilliometer method (ASTM E 1719-97)
Description: Vapor Pressure was measured using the stirred-flask ebuilliometer method described in ASTM E 1719-97 “Vapor Pressure Measurement by Ebuilliometry.” This method is also referred to as “Dynamic Reflux.” The method uses a 50-mL glass round-bottom flask. Vacuum was measured and controlled using a J-KEM vacuum controller (J-KEM Scientific, Saint Louis, Mo., US). The pressure transducer was calibrated on the day of measurement by comparison with full vacuum and with an electronic barometer. The procedure was to begin slowly heating the material, then vacuum was applied until boiling occurred and a steady drop wise reflux rate was established. Pot temperature and pressure reading were recorded, then the vacuum controller was set for a higher absolute pressure and the material was heated further until a new reflux point was established. The pressure level was raised in increments until the vapor pressure curve was obtained up to the atmospheric boiling point. The boiling point of PE1 at 760 mmHg was 238.3° C.

[3] = Kinematic viscosity by Ubbelohde capillary viscometer
Description: Kinematic Viscosity was measured using glass SCHOTT Ubbelohde capillary viscometers (Xylem, Inc., Germany). The viscometers were timed using a SCHOTT AVS 350 viscosity timer. For a temperature of 10° C., a Lawler temperature control bath was used (Lawler Manufacturing Corp., Edison, N.J., US). The viscometer measurement stand and glass viscometer were immersed in a temperature-controlled liquid bath filled with NOVEC 7500 (3M Company, Saint Paul, Minn., US) as the bath fluid. The Lawler temperature bath was fitted with a copper tubing coil for liquid nitrogen cooling with fine temperature control provided by the bath's electronic temperature control heater. The fluid was mechanically stirred to provide uniform temperature in the bath. The bath controlled temperature to within ±0.1° C., as measured by the built-in resistance temperature detector (RTD) temperature sensor. The sample liquid was added to the viscometer between the two fill lines etched on the viscometer. The AVS-350 automatically pumped the sample fluid above the upper timing mark, then released the fluid and measured the efflux times between the upper and lower timing marks. The fluid meniscus was detected by optical sensors as it passed each timing mark. The sample was drawn up and measured repeatedly, averaging multiple measurements. The glass viscometers were calibrated using Canon certified kinematic viscosity standard fluids to obtain a calibration constant (centistokes per second) for each viscometer. The measured kinematic viscosity (centistokes), was calculated as the average efflux time (seconds) times the constant (centistokes/second) for the viscometer used.

[4] = Chemical stability with absorbents at 65° C. (GC-FID); settings: 16 hours, initial starting material 99.6
Description: The chemical stability was evaluated by charging a weighed amount of Preparatory Example PE1 into glass vials and then adding a weighed amount of absorbent. The samples were stirred with heating at 65° C. for 16 hours and then analyzed by GC-FID to determine whether any breakdown products were formed and whether the level of purity changed.

## FC(F)(F)C(F)(F)C(F)(F)C(CC1OC1CC(C(F)(F)F)(C(F)(F)F)C(F)(F)C(F)(F)C(F)(F)F)(C(F)(F)F)C(F)(F)F (stereo not shown) [PE1, 2,3-bis(3,3,4,4,5,5,5-heptafluoro-2,2-bis(trifluoromethyl)pentyl)oxirane]
[1]
  content of starting material in final mixture (GC analysis): approximately 99.4%
  decomposition (GC analysis): no decomposition
[2]; 20 ° C.
  Vapor pressure: 0.026 mmHg
[2]; 55 ° C.
  Vapor pressure: 0.35 mmHg
[2]; 78.6 ° C.
  Vapor pressure: 1.5 mmHg
[2]; 170.7 ° C.
  Vapor pressure: 96.6 mmHg
[2]; 204.3 ° C.
  Vapor pressure: 296.9 mmHg
[2]; 214.7 ° C.
  Vapor pressure: 397.1 mmHg
[2]; 237.7 ° C.
  Vapor pressure: 731.3 mmHg
[2]; at 760 mmHg
  boiling point: 238.3 °C
[3]; 10.0 ° C.
  Kinematic Viscosity: 146.42 cSt
[3]; 25.0 ° C.
  Kinematic Viscosity: 36.22 cSt
[3]; 30.0 ° C.
  Kinematic Viscosity: 25.87 cSt
[3]; 40.0 ° C.
  Kinematic Viscosity: 14.49 cSt
[4]; 4 Å molecular sieves
  GC-FID purity (%): 99.6%
[4]; Activated carbon
  GC-FID purity (%): 98.4%
[4]; Basic alumina
  GC-FID purity (%): 99.7%
[4]; Potassium carbonate
  GC-FID purity (%): 99.6%
[4]; Silica gel
  GC-FID purity (%): 99.6%
